Patent US20090082371A1, “Treatment of Viral Disease and Cancer With Nf-kappaB Inhibitors” (priority 2005, published 2009)

Tests used:
[1] = test system: retrovirus expressing GFP; details: 293T cells, tested dosages, two days after infection
Text: 293T human embryonic kidney cells were infected with the GFP-retrovirus. […] Two days later, the cells were photographed with a digital camera mounted on a microscope. […] Data represent the mean±standard deviation of three independent experiments.
Two days later, the number of infected cells from two separate experiments was counted.

[2] = test system: VSV-G-enveloped HIV-Luciferase viruses (HIV-1)
[3] = test system: A431 human epidermoid carcinoma cells; assay: Cancer cell growth, viable cell count by trypan blue exclusion; assay type: cell-based; details: A431, 5 μM; for % inhibition of cell growth: day 6, vs untreated cells; for cell apoptosis: day 6
Text: (§1) The tested cells include LNCAP human prostate cancer cells, MDA-MB-468 human breast cancer cells, H1299 human lung cancer cells, AGS human gastric cancer cells, HepG2 human liver cancer cells, PANC-1 human pancreatic carcinoma cells, Jurkat human acute T-cell leukemia cells, A431 human epidermoid carcinoma cells, U251 human glioma cells, NBT-II human bladder cancer cells, and Hela human cervical cancer cells.

[4] = test system: H1299 human lung cancer cells; assay: as above; assay type: cell-based; details: H1299, 5 μM
Text: as §1

[5] = test system: Hela human cervical cancer cells; assay: as above; assay type: cell-based; details: for % inhibition of cell growth / inhibition at 5 µM: day 6, vs untreated cells; for inhibition at 5 µM: Homo sapiens, 144 h
Text: as §1

[6] = test system: HepG2 human liver cancer cells; assay: as above; assay type: cell-based; details: HepG2, 5 μM
Text: as §1

[7] = test system: MDA-MB-468 human breast cancer cells; assay: as above; assay type: cell-based; details: MDA-MB-468, 5 μM
Text: as §1

[8] = test system: AGS human gastric cancer cells; assay: as above; assay type: cell-based; details: for inhibition at 5 µM: Homo sapiens, 144 h
Text: as §1

[9] = test system: LNCAP human prostate cancer cells; assay: as above; assay type: cell-based
Text: as §1

[10] = test system: NBT-II human bladder cancer cells; assay: as above; assay type: cell-based; details: for inhibition at 5 µM: Homo sapiens, 144 h
Text: as §1

[11] = test system: PANC-1 human pancreatic carcinoma cells; assay: as above; assay type: cell-based; details: PANC-1, 5 μM
Text: as §1

[12] = test system: U251 human glioma cells; assay: as above; assay type: cell-based; details: U251, 5 μM; for cell apoptosis: day 6
Text: as §1

[13] = test system: HT29 cells; assay: as above; assay type: cell-based; details: HT29, 5 μM
[14] = test system: Jurkat human acute T-cell leukemia cells; assay: as above; assay type: cell-based; details: 5 μM
Text: as §1

[15] = test system: cells listed in Table 1; assay: Cancer cell growth, panel of cells listed in Table 1; assay type: cell-based, human; details: 5 μM, day 6, vs untreated cells
Text: as §1

[16] = Homo sapiens, 144 h, day 6, vs untreated cells
[17] = day 6, about 4×10^4 cells at start
[18] = 5 μM, day 6, about 4×10^4 cells at start
[19] = 5 μM, day 6, vs untreated cells

SMILES: C=CCOc1ccc(CCNc2ncnc3ccc(N)cc23)cc1
- cell deaths observed [1]: no obvious cell deaths
- cell deaths observed [2]: no obvious cell deaths
- inhibition of HIV-1 viral infection and replication (HIV-1-induced Luciferase activity) [2]: showed inhibition

SMILES: COc1cc(O)c2c(c1)oc(=O)c1c3cc(O)c(O)cc3oc21 [7-Methoxy-5,11,12-trihydroxy-coumestan]
- % inhibition of cell growth [3]: about 51%
- % inhibition of cell growth ([4]; day 6, vs untreated cells): ~31%
- % inhibition of cell growth ([5]; 5 μM): ~29%
- % inhibition of cell growth ([6]; day 6, vs untreated cells): ~25%
- % inhibition of cell growth ([7]; day 6, vs untreated cells): ~10%

SMILES: Nc1ccc2ncnc(NCCc3ccc(OCc4ccccn4)cc3)c2c1
- cell deaths observed [1]: no obvious cell deaths
- cell deaths observed [2]: no obvious cell deaths
- inhibition of HIV-1 viral infection and replication (HIV-1-induced Luciferase activity) [2]: showed inhibition

SMILES: Nc1ccc2ncnc(NCCc3ccc(OCc4ccccc4)cc3)c2c1
- cell deaths observed [1]: no obvious cell deaths
- cell deaths observed [2]: no obvious cell deaths
- inhibition of HIV-1 viral infection and replication (HIV-1-induced Luciferase activity) [2]: showed inhibition

SMILES: COc1ccc([C@@]23Oc4cc(OC)cc(OC)c4[C@]2(O)[C@H](O)[C@H](C(=O)N(C)C)[C@H]3c2ccccc2)cc1 [rocaglamide, reference compound]
- cell apoptosis [3]: completely cell apoptosis
- inhibition at 5 µM ([8]; day 6, vs untreated cells): ~50%
- inhibition at 5 µM ([4]; Homo sapiens, NCI-H1299, 144 h, day 6, vs untreated cells): ~80%
- inhibition at 5 µM [5]: 9 to 40%
- inhibition at 5 µM [6, 16]: 9 to 40%
- inhibition at 5 µM [9, 16]: ~70%
- cell apoptosis ([7]; day 6): completely cell apoptosis
- inhibition at 5 µM ([10]; day 6, vs untreated cells): 9 to 40%
- inhibition at 5 µM [11, 16]: 9 to 40%
- cell apoptosis [12]: completely cell apoptosis
- cell deaths observed [2]: no obvious cell deaths
- inhibition of HIV-1 viral infection and replication (HIV-1-induced Luciferase activity) [2]: showed inhibition

SMILES: Nc1ccc2ncnc(NCCc3ccc(Oc4ccccc4)cc3)c2c1
- Treated (cell number × 10^5) [13, 17]: 1.9 ± 0.1 × 10^5
- % inhibition of cell growth ([13]; day 6, vs untreated cells): 50%
- Treated (cell number × 10^5) [3, 17]: 3.2 ± 0.2 × 10^5
- % inhibition of cell growth [3]: 59%
- Treated (cell number × 10^5) [8, 18]: 2.1 ± 0.1 × 10^5
- % inhibition of cell growth [8, 19]: 10%
- Treated (cell number × 10^5) [4, 17]: 3 ± 0.2 × 10^5
- % inhibition of cell growth ([4]; day 6, vs untreated cells): 52%
- Treated (cell number × 10^5) [5, 18]: 1.1 ± 0.1 × 10^5
- % inhibition of cell growth ([5]; 5 μM): 70%
- Treated (cell number × 10^5) [6, 17]: 0.8 ± 0.1 × 10^5
- % inhibition of cell growth ([6]; day 6, vs untreated cells): 80%
- Treated (cell number × 10^5) [14, 17]: 6.3 ± 0.4 × 10^5
- % inhibition of cell growth ([14]; day 6, vs untreated cells): 28%
- Treated (cell number × 10^5) [9, 18]: 0.7 ± 0.2 × 10^5
- % inhibition of cell growth [9, 19]: 90%
- Treated (cell number × 10^5) [7, 17]: 5.4 ± 0.1 × 10^5
- % inhibition of cell growth ([7]; day 6, vs untreated cells): 10%
- Treated (cell number × 10^5) [10, 18]: 2.7 ± 0.1 × 10^5
- % inhibition of cell growth [10, 19]: 10%
- Treated (cell number × 10^5) [11, 17]: 1.9 ± 0.1 × 10^5
- % inhibition of cell growth ([11]; day 6, vs untreated cells): 14%
- Treated (cell number × 10^5) [12, 17]: 7.2 ± 0.2 × 10^5
- % inhibition of cell growth ([12]; day 6, vs untreated cells): 20%
- inhibition of cell growth, range over the cancer cells of Table 1 [15]: 10-90%
- cell deaths observed [1]: no obvious cell deaths
- cell deaths observed [2]: no obvious cell deaths
- inhibition of HIV-1 viral infection and replication (HIV-1-induced Luciferase activity) [2]: showed inhibition

SMILES: CC1=C(O)C(=O)C=C2C1=CC=C1[C@@]2(C)CC[C@@]2(C)[C@@H]3C[C@](C)(C(=O)O)CC[C@]3(C)CC[C@]12C [celastrol, 3-hydroxy-24-nor-2-oxo-1(10),3,5,7-friedelatetraen-29-oic Acid, reference compound]
- cell apoptosis ([14]; day 6): about 90%
- cell deaths observed [2]: no obvious cell deaths

SMILES: Cc1ccc(S(=O)(=O)/C=C/C#N)cc1 [BAY 11-7082, (E)3-[(4-Methylphenyl)sulfonyl]-2-propenenitrile, reference compound]
- cell apoptosis [3]: completely cell apoptosis
- inhibition at 5 µM ([8]; day 6, vs untreated cells): ~90%
- cell apoptosis ([4]; day 6): completely cell apoptosis
- inhibition at 5 µM [5]: 9 to 12%
- cell apoptosis ([6]; day 6): completely cell apoptosis
- cell apoptosis ([9]; 5 μM, day 6): completely cell apoptosis
- inhibition at 5 µM [7, 16]: 9 to 12%
- inhibition at 5 µM ([10]; day 6, vs untreated cells): 9 to 12%
- cell apoptosis ([11]; day 6): completely cell apoptosis
- cell apoptosis [12]: completely cell apoptosis

SMILES: O=C(/C=C/c1ccc(O)c(O)c1)OCCc1ccccc1 [cape, reference compound]
- cell deaths observed [2]: no obvious cell deaths
- inhibition of HIV-1 viral infection and replication (HIV-1-induced Luciferase activity) [2]: showed inhibition
